US20220289791A1, “LACTATE DEHYDROGENASE INHIBITOR POLYPEPTIDES FOR USE IN THE TREATMENT OF CANCER” (UNIVERSITÉ CATHOLIQUE DE LOUVAIN, priority 2019, published 2022)
*1 amine or outer side, *2 acyl side, *3 side chain or, on linkers, in order; H or OH if unused. Where a SMILES comes first, the peptide text is derived from it. Bridges are numbered along the chain shown (N, C = ends). C6F4(1,4-diyl) = Fc1c(F)c([*:2])c(F)c(F)c1[*:1]

Tests used:
truncated LDHB (LDHBtr) = truncated LDHB (LDHBtr) (Homo sapiens, UniProt P07195); test: Microscale thermophoresis (MST), Example 2, macrocycles against truncated LDHB; assay type: binding; settings: MST traces at 10 s to 20 s on time
Protocol: MST measurements were performed on a Nanotemper Monolith NT.115 instrument (NanoTemper Technologies®) using Red-dye-NHS fluorescent labeling. Each LDH sample, purified to homogeneity, was labeled with the Monolith Red-dye-NHS 2nd generation labeling dye (NanoTemper Technologies®), according to the manufacturer's instructions. Measurements were performed in 50 mM sodium phosphate, pH 7.6, and 100 mM NaCl containing 0.05% Tween-20 in premium-treated capillaries (NanoTemper Technologies®). The final concentrations of either labeled protein in the assay were 100 nM. The ligands (NADH and peptides) were titrated in 1:1 dilutions following manufacturer's recommendations. All binding reactions were incubated for 5 min at room temperature after loading into capillaries. Experiments were performed in triplicates using 40% LED power, medium MST power, Laser On time 20 s and Laser Off time 3 s. Peptides were evaluated for their thermophoretic pattern, and Kd's were extracted from raw data at a 10 to 20 s MST on time according to manufacturer's instructions. Regarding interaction of 7 with LDH5, Kd was extracted from the raw fluorescence. A denaturation test was performed accordingly to manufacturer recommendation and excluded any nonspecific spectral interaction between 7 and the red-dye. All Kd's of interacting macrocycles and peptides were obtained in triplicate and corrected by taking into account the molecular weight of the TFA counter ion.

rabbit LDH5 (rLDH5) = molecular target: T1, rabbit LDH5 (rLDH5) (Oryctolagus cuniculus, UniProt P13491); test: Denaturation assay: rLDH5 fluorescence recovery after acidic exposure; assay type: biochemical; settings: 200 nM rLDH5, 50 μM peptide, pH 5 then neutral pH
T1 construct: purchased Sigma-Aldrich
Protocol: Rabbit LDHA commercial solution (Sigma-Aldrich®) in an ammonium sulfate suspension (pH-7, 3.2 M) was first diluted to 1 mg/ml in a solution of NaCl 200 mM and then dialyzed at 4° C. 2×2 h against 200 mM NaCl. The stock solution of 1 mg/ml was then diluted to 30 μg/ml (800 nM) in NaCl 20 0 mM to give the assay solution. Assay solution was mixed 1:1 with acetate-chloride buffer (20 mM Acetic acid/Acetate, 180 mM NaCl, 1 mM DTT pH 5) and stored on ice for 30 minutes. Samples were then removed from ice and let warm up for 2 minutes. The acidic solution was then diluted 1:1 with a 250 mM phosphate buffer (pH 7.6) containing or not the inhibitory peptide to yield a 7.5 μg/ml (200 nM) final concentration of re-associating LDHA. Samples of the resulting solutions were then subjected to kinetic experiments of the recovery of intrinsic fluorescence (Exc=286 nm, Em=350 nm, 10′, rt).
An experiment was thus designed to follow the recovery of LDH tetramers after a dissociation step initiated by acidic conditions. […] Monitoring of the rLDH5 tetrameric state was performed by following its intrinsic tryptophan fluorescence: 6 tryptophan residues can be found in each rLDHA monomer, three of them being located at the dimer-dimer interface. As the tryptophan quantum yield decreases in a polar environment, dimeric LDHs show very weak tryptophan fluorescence compared to the tetrameric form. […] Such decay can be compared to the difference in tryptophan fluorescence between tetrameric LDH1 and dimeric LDHBtr.

dimeric model of LDH = dimeric model of LDH (Homo sapiens, UniProt P07195); test: nanoDSF thermal denaturation of dimeric LDH model; assay type: binding
[1] = tested on: Mia Paca-2 human pancreatic cancer cells; test: Seahorse OCR and ECAR measurement; assay type: cell-based; settings: 200 μM, 4 h incubation
Protocol: Macrocyclic peptide MP7 (SEQ ID NO: 61) was evaluated at 200 μM against Mia Paca-2 human pancreatic cancer cells (ATCC®).
The oxygen consumption rate (OCR) and extracellular acidification rate (ECAR) were measured on a Seahorse XF96 analyzer (Agilent®) with a combination of XF cell mito stress kit (Agilent®) and 2-deoxy-D-glucose (2DG; Sigma Aldrich®). Seahorse experiments were performed using 10,000 cells/well in DMEM medium with 10 mmol/L of D-glucose and 1 mmol/L of L-Glutamine Cells were incubated for 1 h in a CO2-free incubator before analysis. […] Oximetry before the addition of any agent provided the basal respiration rate of the cells; ATP-linked reparation was determined after the addition of 1 μM of oligomycin and the maximal respiration rate of the cells after the addition of 1 μM of FCCP. All data were normalized to cell numbers measured right before oximetry using a SpectraMax miniMax 300 imaging cytometer (Molecular Devices®). Macrocyclic peptide MP7 in PBS or PBS alone (control experiment) were added directly into the medium and incubated with Mia Paca-2 cells during 4 h before conducting Seahorse experiments on the medium composed of the Mia Paca-2 cells with or without macrocyclic peptide MP7.

human LDH5 = molecular target: T2, human LDH5 (Homo sapiens, UniProt P00338); test: nanoDSF thermal denaturation of LDH5; assay type: binding
T2 construct: purchased Abnova

LDHBtr = LDHBtr (Homo sapiens, UniProt P07195); test: Intrinsic fluorescence assay on dimeric LDHBtr; assay type: biochemical
Protocol: Full tryptophan fluorescence spectra were recorded using an excitation wavelength of 286 nm and recording the emission spectra from 320 nm to 400 nm at room temperature. Raw fluorescence of every experiments was further subtracted to a corresponding control experiment without the protein. Experiments were performed in a 50 mM sodium phosphate and 100 mM NaCl, pH 7.6, buffer. For LDH dissociation into subunits, increasing amounts of guanidinium/HCl were put in contact with the studied proteins (1.3 μM), and fluorescence spectra were recorded afterwards. Guanidinium/HCl concentrations ranged from 0.3 M to 2 M.

human LDH1 = human LDH1 (Homo sapiens, UniProt P07195); test: nanoDSF thermal denaturation of LDH1; assay type: binding
human LDH1, sequence (P07195 whole entry): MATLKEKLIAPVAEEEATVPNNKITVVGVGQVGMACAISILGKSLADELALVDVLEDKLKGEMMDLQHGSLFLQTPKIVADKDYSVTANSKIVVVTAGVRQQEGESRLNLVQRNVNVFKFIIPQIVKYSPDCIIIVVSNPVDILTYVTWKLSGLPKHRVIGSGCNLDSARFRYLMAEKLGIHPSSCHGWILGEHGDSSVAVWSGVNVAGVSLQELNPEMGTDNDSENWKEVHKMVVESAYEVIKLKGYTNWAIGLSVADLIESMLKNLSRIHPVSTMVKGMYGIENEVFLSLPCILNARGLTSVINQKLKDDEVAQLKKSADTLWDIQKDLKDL

LDHBtr, sequence (P07195 21-334): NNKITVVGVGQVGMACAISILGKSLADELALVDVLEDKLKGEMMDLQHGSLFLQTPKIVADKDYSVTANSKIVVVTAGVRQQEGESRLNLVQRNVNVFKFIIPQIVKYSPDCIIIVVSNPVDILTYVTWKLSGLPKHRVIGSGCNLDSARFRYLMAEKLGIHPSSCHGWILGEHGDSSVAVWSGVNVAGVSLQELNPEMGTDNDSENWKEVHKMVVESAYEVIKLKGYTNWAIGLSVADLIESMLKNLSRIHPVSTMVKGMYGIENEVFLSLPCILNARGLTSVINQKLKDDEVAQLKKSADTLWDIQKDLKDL
truncated LDHB (LDHBtr), sequence (P07195 21-334): as above
dimeric model of LDH, sequence (P07195 21-334): as above

Kd (truncated LDHB (LDHBtr)): 11 µM | LDH5 fluorescence recovery after acidification (rabbit LDH5 (rLDH5)): significantly interfered | destabilization of dimeric model of LDH (dimeric model of LDH): did not induce such destabilization | ΔTm at 400 µM (human LDH5; LDH-5 tetramer, MP7 at 400 μM): -5 °C | decay of LDHBtr fluorescence spectrum (LDHBtr): did not induce a comparative decay | ΔTm at 400 µM (human LDH1; LDH1, MP7 at 400 μM): -1.5 °C
Compound: CC[C@H](C)[C@H](NC(=O)[C@H](CC(C)C)NC(=O)[C@H](CCCCN)NC(=O)[C@@H]1CSc2c(F)c(F)c(c(F)c2F)SC[C@H](N)C(=O)N[C@@H]([C@@H](C)O)C(=O)N[C@@H](CC(C)C)C(=O)N[C@@H](CCCCN)C(=O)N1)C(N)=O [MP7, CTLKCKLI] (H-CTLKCKLI-NH2; linker 1-5 via C6F4(1,4-diyl); N-terminus assumed)
glycolytic flux (ECAR) [1]: increase | mitochondrial oxygen consumption rate (OCR) [1]: strong decrease | effect on LDH5 stability (human LDH5; nanoDSF): induced a destabilizing conformational change | effect on LDH1 stability (human LDH1; nanoDSF): induced a destabilizing conformational change
